Data from patent publication US9784746B2, “Method for studying transport of an agent across a bilayer membrane in bioanalytical sensor applications” (Bio-Rad Laboratories, Inc., priority 2008, dated 2017).
Values belong to the compound of their own block, whether it stands above or below them.

Columns and labels:
[1] = Melittin binding to tethered POPC liposomes (Biacore SPR)
Method: Liposomes were made by first evaporating the solvent, chloroform, from the POPC lipids using a flow of nitrogen gas. The dried lipids were then kept under the flow of nitrogen gas for at least one hour after which HEPES-2 was added to yield a 4 mg/ml concentration of POPC. The dissolved POPC lipids were vortexed for at least 30 min to yield multi-laminar liposomes. Uni-laminar liposomes were produced using a mini extruder and polycarbonate membranes with pore size of 50 nm from Avanti Polar Lipids® with a 50 nm pore size. […] The liposomes were stored under nitrogen gas at 4° C. until use (within 2 days).
A mixture (300 μl) of HS-PEG (200 μg/ml) and HS-PEG-Biotin (20 μg/ml), dissolved in HEPES-2, were injected over the Biacore® Au sensor chip at a flow rate of 5 μl/min. Then a mixture (150 μl) of NeutrAvidin (40 μg/ml) and Biotin-DNA (0.7 μM) was injected and bound to HS-PEG-Biotin at the surface.
POPC liposomes (2 mg/ml, in HEPES-2) containing cholesterol-DNA tags (3 DNA tags per liposome) were injected at a flow rate of 5 μl/min. The end of the DNA-part of the cholesterol-DNA tag is single-stranded and complementary in sequence to the Biotin-DNA at the surface enabling tethering of the liposomes to the sensor surface.
The reversible binding of melittin was measured in the Biacore® instrument directly after the tethering of POPC liposomes was finished. Melittin solutions at a concentration of 0.5-40 μM in HEPES-2 were injected in sequence. During injection the melittin molecules bind to the liposomes and after the injection is terminated, running buffer (HEPES-2) flows over the surface and melittin dissociates. After the dissociation was complete a new melittin solution of different concentration was injected.
Melittin solutions of various concentrations (0.5-40 μM) were injected over the bound liposomes in the Biacore® instrument at 5 μl/min. The change in response (RU) as a function of time (t) was fitted to RU=RU0+RU1*(1−exp(−t/τ1))+RU2*(1−exp(−t/τ2)). However, the change in RU during the injection of 0.5 μM melittin could be described using only one exponential (i.e. RU2=0). It is known that high concentrations of melittin can rupture cells and liposomes. Unspecific binding (i.e. binding to the biosensor surface without liposomes) of melittin was small, less than 5% of the binding of melittin to the liposome membrane surface (data not shown).

[2] = Cyclodextrin removal of cholesterol from liposome bilayer (SPR); conditions: after seven injections; start 40% cholesterol
From the text: (§1) 70 nm liposomes containing 40% cholesterol were provided in accordance with Example 1. Binding of the liposomes followed by repeated injection cyclodextrin, which removes cholesterol from the lipid bilyaer of the liposomes is shown in FIG. 6a. The SPR response is proportional to the interfacial refractive index, which makes it possible to quantify the removal of cholesterol. After seven injections of cyclodextrin, the cholesterol content was reduced to 14%.

[3] = Glycerol transport across liposome membrane versus cholesterol content (SPR); format: physicochemical
Method: At first 70 nm liposomes were provided in accordance with Example 1. […] Also shown in FIG. 4b (dashed curve) is an identical rinsing step without immobilized liposomes, illustrating that the time constant of the fluidic exchange is faster than 100 ms, which is sufficient to temporally resolve these transport measurements. The rate of glycerol release was examined in a temperature interval from 8 to 22° C. […] In agreement with expectations, the rate of transport across the lipid membrane increases with increasing temperature, and Arrhenius plots display a linear dependence between ln(1/) and 1/T, yielding activation energies in excellent agreement with literature data for the three solutes (glycerol, urea and hydroxyurea) investigated, see FIG. 5b.
as §1, with “After seven injections of cyclodextrin, the cholesterol content was reduced to 14%.” left out
Each injection of cyclodextrin (FIG. 6a) was followed by an injection pulse of glycerol, which enabled the time constant of glycerol transport versus cholesterol content to be quantified, ranging from around 7 s at 40% cholesterol to 1 s at 14% cholesterol, see FIG. 6b. […]

[4] = Membrane transport of ions across gramicidin-containing liposomes (SPR); format: physicochemical; conditions: gramicidin incorporated for K+ co-transport; FIG. 7
From the text: Information of this type is of high relevance in studies on how, for example, drugs influence the permeability of cell-membranes. Both passive and membrane-protein mediated transfer of uncharged solutes is of high biological and pharmaceutical relevance. However, for a method like this to be generically applicable for any type of membrane transport reaction, also ion translocation should be possible to measure, which is today typically measured using patch-clamp based assays. FIG. 7 illustrates membrane transport of iodide (˜10 s) and chloride (˜200 s) ions, in excellent agreement with literature data. Note that gramicidin was incorporated into the liposomes in order to ensure co-transport of counter ions (K+), thus prohibiting the establishment of an electrostatic transmembrane potential that would otherwise restrict the unhindered transport of anions.

[5] = Melittin pore mediated sucrose uptake into tethered liposomes (SPR refractive index); format: physicochemical
Method: After tethering of NeutrAvidin/Biotin-DNA the following injections were made in sequential order; 0.1 M sucrose, 2 mg/ml cholesterol-DNA tagged POPC-liposomes, 0.1 M sucrose, 40 μM melittin, 0.1 M sucrose, 0.1 M sucrose, 0.1 M sucrose. All samples were dissolved in HEPES-2.
A simple method for real-time and label-free uptake measurements of analytes across membranes at a biosensor surface would be of great value when investigating for example membrane transporters. Here we wanted to test if it was possible to measure the uptake of an analyte, sucrose, through the melittin pore by simply detecting the change in refractive index of the solution inside the liposome caused by the analyte as it is taken up.
Adding sucrose changes the refractive index of the solution in the detection volume, i.e. the volume corresponding to the evanescent field above the sensor surface, which is manifested as a shift in RU. […]
The amplitude of the uptake decrease from S3 to S5, which is explained by a decreasing number of liposomes having pores. […] The expected RU of the 7400 sucrose molecules (0.1 M) inside the liposome can be calculated from the obtained response of immobilizing the liposome itself (RU=6790). […] Since only ˜85% of the liposomes have pores the expected value is 480/0.85≈560 RU, which is in good agreement with the measured response of 530 RU from the S3 injection.

[6] = outer membrane, fast phase, fit of k1 vs [Mel]B, 0.5-40 μM, HEPES-2

Compound: CC[C@H](C)[C@H](NC(=O)CN)C(=O)NCC(=O)N[C@@H](C)C(=O)N[C@H](C(=O)N[C@@H](CC(C)C)C(=O)N[C@@H](CCCCN)C(=O)N[C@H](C(=O)N[C@@H](CC(C)C)C(=O)N[C@H](C(=O)N[C@H](C(=O)NCC(=O)N[C@@H](CC(C)C)C(=O)N1CCC[C@H]1C(=O)N[C@@H](C)C(=O)N[C@@H](CC(C)C)C(=O)N[C@H](C(=O)N[C@@H](CO)C(=O)N[C@@H](Cc1c[nH]c2ccccc12)C(=O)N[C@H](C(=O)N[C@@H](CCCCN)C(=O)N[C@@H](CCCNC(=N)N)C(=O)N[C@@H](CCCCN)C(=O)N[C@@H](CCCNC(=N)N)C(=O)N[C@@H](CCC(N)=O)C(=O)N[C@@H](CCC(N)=O)C(N)=O)[C@@H](C)CC)[C@@H](C)CC)[C@@H](C)O)[C@@H](C)O)C(C)C)C(C)C [melittin]
- k+2 (apparent, slower kinetic phase, binding to inner membrane) ([1]; linear fit of k2 vs [Mel]B): 56 M⁻¹ s⁻¹
- k−2 (slower kinetic phase, binding to inner membrane) ([1]; linear fit of k2 vs [Mel]B): 0.0046 s⁻¹
- microscopic off-rate k−1 of melittin with the liposome membrane surface [1, 6]: 0.032 s⁻¹
- microscopic on-rate k+1 of melittin with the liposome membrane surface [1, 6]: 3684 M⁻¹ s⁻¹

Compound: cyclodextrin
- cholesterol content of liposomes after cyclodextrin [2]: 14%

- time constant of glycerol transport ([3]; 14% cholesterol): ~1 s
- time constant of glycerol transport ([3]; 40% cholesterol): around 7 s
Compound: OCC(O)CO [glycerol]

Compound: Cl [chloride]
- membrane transport time [4]: ~200 s

- membrane transport time [4]: ~10 s
Compound: I [iodide]

Compound: OC[C@H]1O[C@@](CO)(O[C@H]2O[C@H](CO)[C@@H](O)[C@H](O)[C@H]2O)[C@@H](O)[C@@H]1O [sucrose]
- decay time for uptake of sucrose τ3 ([5]; 0.1 M sucrose after 40 μM melittin (S3), estimated from FIG. 3): ≈ 20 sec
- number of sucrose molecules that cross the membrane per liposome ([5]; in ˜20 sec, inside concentration 0.1 M): ~7400
